Measurements taken from patent US11096906B2, “Pharmaceutical composition for preventing or treating Alzheimer's disease” (SFCBIO. CO., LTD., priority 2015, dated 2021).

Columns and labels:
Assay type in all cases: cell-based
sAPPβ protein = test: Amount of sAPPβ protein released from APPwt-CHO cells, by western blot; details: for reduction of the amount of sAPPβ protein as compared to the control group: APPwt-CHO cells
Procedure: (§1) In order to evaluate the ability of suppressing β-amyloid formation of Compounds 1-3, APPwt-CHO cells obtained by overexpressing APP in CHO cells were used and the amount of the sAPPβ protein cleaved by β-secretase and released out of the cells was measured by western blot. When the APP precursor protein is cleaved first by β-secretase, sAPPβ is released out of the cell. The protein remaining attached to the membrane is cleaved again by γ-secretase to produce β-amyloid. Accordingly, the amount of β-secretase and sAPPβ is proportional to the amount of the produced β-amyloid. Therefore, the amount of the two proteins was measured by western blot.

β-secretase = test: Amount of β-secretase protein in APPwt-CHO cells, by western blot; details: for reduction of the amount of β-secretase protein as compared to the control group: APPwt-CHO cells
Procedure: as §1

APP*t-CHO cells = test: MTT-based cytotoxicity assay
Procedure: The cytotoxicity of Compounds 1-3 separated and identified in Examples 1-5 was investigated by MTT-based cytotoxicity assay. APP*t-CHO cells treated with Compounds 1-3 were cultured for 24 hours. After adding a 5 mg/mL MTT solution, the cells were cultured for 4 hours. After removing the culture medium and lysing the cells for 30 minutes by adding DMSO, absorbance was measured at 540 nm using the Emax precision microplate reader (Molecular Devices, CA, USA).

[1] = 100 μg/mL, cells cultured 24 hours, MTT

Compound | reduction of the amount of sAPPβ protein as compared to the control group (sAPPβ protein; 20 μg/mL) | reduction of the amount of sAPPβ protein as compared to the control group (sAPPβ protein; 100 μg/mL) | reduction of the amount of β-secretase protein as compared to the control group (β-secretase; 20 μg/mL) | reduction of the amount of β-secretase protein as compared to the control group (β-secretase; 100 μg/mL) | cytotoxicity (APP*t-CHO cells; [1]) | reduction of the amount of sAPPβ protein as compared to the control group (sAPPβ protein; 10 μg/mL) | reduction of the amount of sAPPβ (in words) (sAPPβ protein; 20 μg/mL) | decrease of the amount of β-secretase (in words) (β-secretase) | reduction of the amount of β-secretase protein as compared to the control group (β-secretase; 10 μg/mL) | cytotoxicity (APP*t-CHO cells; 20 μg/mL) | concentration at which toxicity was shown (APP*t-CHO cells; cells cultured 24 hours, MTT)
CCC(=O)c1c(O)cc(O)c(C)c1O [Compound 2, 2-propionyl-4-methylphloroglucinol] | about 40% | about 80% | about 40% | about 60% | no toxicity |  |  |  |  |  | 
CCCC(=O)c1c(O)cc(O)c(C)c1O [Compound 3, 2-butyryl-4-methylphloroglucinol] | about 80% |  | about 30% |  | showed toxicity | about 40% | almost perfectly | effectively decreased | about 20% | no toxicity was observed | ≥ 30000 ng/mL
CCCC(=O)c1c(O)cc(O)cc1O [Compound 1, butyrylphloroglucinol] | about 70% |  | about 30% |  | no toxicity | about 20% |  |  | about 10% |  | 
